These results are taken from patent US4407806A, “Fungicidal, herbicidal and plant growth regulating pyridyl-containing ethers” (Chevron Research Company, priority 1981, dated 1983).

For orientation: inhibition means the share of the control response that was lost under treatment.

What all share (type): in vivo
Experiment [1] deals with grape downy mildew organism Plasmopara viticola. Briefly: Grape Downy Mildew control (detached grape leaves). The conditions noted are these: vs untreated check, read-out: Fungicidal Activity Control %, Grape D.M.
In experiment [2] the test system is Tomato Late Blight organism Phytophthora infestans. Briefly: whole plant or invertebrate. The following applies: 168 h, read-out: Fungicidal Activity Control %, Tomato L.B.
Experiment [3] relates to celery late blight organism Septoria apii. Briefly: whole plant or invertebrate. The conditions noted are these: 336 h, read-out: Fungicidal Activity Control %, Celery L.B.
Experiment [4] deals with tomato Early Blight organism, Alternaria solani conidia. Briefly: Tomato Early Blight control. The following applies: 288 h, about 12 days in greenhouse, vs untreated check, read-out: Fungicidal Activity Control %, Tomato E.B. The procedure:
Compounds of the invention were tested for the control of the tomato Early Blight organism, Alternaria solani conidia. Tomato (variety Bonny Best) seedlings of 6 to 7 weeks old were used. The tomato plants were sprayed with a 250 ppm solution of the test compound in an acetone-and-water solution containing a small amount of a nonionic emulsifier. The sprayed plants were inoculated one day later with the organism, placed in the environmental chamber and incubated at […] and 100% relative humidity for 24 hours. Following the incubation, the plants were maintained in a greenhouse for about 12 days. Percent diseases control was based on the percent disease development on untreated check plants.

For experiment [5], the system named is Bean Powdery Mildew organism Erisiphe polygoni. Briefly: Bean Powdery Mildew control. The conditions noted are these: 240 h, 10 days, vs untreated check, read-out: Fungicidal Activity Control %, Bean P.M. The procedure: The compounds of the invention were tested for the control of the Bean Powdery Mildew organism […] polygoni. Seedling bean plants were sprayed with a 250 ppm solution of the test compound in acetone, water and a nonionic emulsifier. The sprayed plants were then inoculated 1 day later with organism. […] The percent disease control provided by a given test compound was based on the percent disease reduction relative to the untreated check plants.

Experiment [6] relates to Crabgrass (Digitaria sanguinalis). Briefly: Pre-emergent herbicidal test. The following applies: 504 h, pre-emergence, 33 micrograms/cm^2, 3 weeks, 0-to-100 scale, read-out: Herbicidal Activity Pre-Emergence % Control, Crab Grass. The procedure: (§1) An acetone solution of the test compound was prepared by mixing 750 mg of the compound, 220 mg of a nonionic surfactant and 25 ml of acetone. This solution was added to approximately 125 ml of water containing 156 mg of surfactant.
(§2) Seeds of the test vegetation were planted in a pot of […] and the test solution was sprayed uniformly onto the soil surface at a dose of 33 micrograms/cm^2. The pot was watered and placed in a greenhouse. […] At the end of this period, the herbicidal effectiveness of the compound was rated based on the physiological observations. A 0-to-100 scale was used, 0 representing no phytotoxicity, 100 representing complete kill.

Experiment [7] has as its system Lambsquarter (Chenopodium album). Briefly: Pre-emergent herbicidal test. The following applies: 504 h, pre-emergence, 33 micrograms/cm^2, 3 weeks, 0-to-100 scale, read-out: Herbicidal Activity Pre-Emergence % Control, L'Qtr. How it is done: as §1, §2
Experiment [8] has as its system Mustard (Brassica arvensis). Briefly: Pre-emergent herbicidal test. The following applies: 504 h, pre-emergence, 33 micrograms/cm^2, 3 weeks, 0-to-100 scale. How it is done: as §1, §2
Experiment [9] relates to Pigweed (Amaranthus retraflexus). Briefly: Pre-emergent herbicidal test. The conditions noted are these: 504 h, pre-emergence, 33 micrograms/cm^2, 3 weeks, 0-to-100 scale. How it is done:
as §1, §2

Experiment [10] deals with Soybean. Briefly: Pre-emergent herbicidal test. The conditions noted are these: Glycine max, 504 h; pre-emergence; 33 micrograms/cm^2; 3 weeks; 0-to-100 scale; read-out: Herbicidal Activity Pre-Emergence % Control, Soybean. How it is done: as §1, §2
Experiment [11] has as its system Watergrass (Echinochloa crusgalli). Briefly: Pre-emergent herbicidal test. The conditions noted are these: Echinochloa crus-galli, 504 h; pre-emergence; 33 micrograms/cm^2; 3 weeks; 0-to-100 scale; read-out: Herbicidal Activity Pre-Emergence % Control, Water Grass. The procedure: as §1, §2
For experiment [12], the system named is Wild Oats (Avena fatura). Briefly: Pre-emergent herbicidal test. The following applies: 504 h, pre-emergence, 33 micrograms/cm^2, 3 weeks, 0-to-100 scale. The procedure:
as §1, §2

The test system of experiment [13] is Crabgrass (Digitaria sanguinalis). Briefly: Post-emergent herbicidal test. The conditions noted are these: 504 h, post-emergence, 33 micrograms/cm^2, 3 weeks, 0-to-100 scale, read-out: Herbicidal Activity Post-Emergence % Control, Crab Grass.
Experiment [14] relates to Lambsquarter (Chenopodium album). Briefly: Post-emergent herbicidal test. The following applies: 504 h, post-emergence, 33 micrograms/cm^2, 3 weeks, 0-to-100 scale, read-out: Herbicidal Activity Post-Emergence % Control, L'Qtr.
The test system of experiment [15] is Mustard (Brassica arvensis). Briefly: Post-emergent herbicidal test. The following applies: 504 h, post-emergence, 33 micrograms/cm^2, 3 weeks, 0-to-100 scale.
Experiment [16] has as its system Pigweed (Amaranthus retraflexus). Briefly: Post-emergent herbicidal test. The conditions noted are these: 504 h, post-emergence, 33 micrograms/cm^2, 3 weeks, 0-to-100 scale.
For experiment [17], the system named is Soybean. Briefly: Post-emergent herbicidal test. The conditions noted are these: Glycine max, 504 h, post-emergence, 33 micrograms/cm^2, 3 weeks, 0-to-100 scale, read-out: Herbicidal Activity Post-Emergence % Control, Soybean.
The test system of experiment [18] is Watergrass (Echinochloa crusgalli). Briefly: Post-emergent herbicidal test. The following applies: Echinochloa crus-galli, 504 h, post-emergence, 33 micrograms/cm^2, 3 weeks, 0-to-100 scale, read-out: Herbicidal Activity Post-Emergence % Control, Water Grass.
Experiment [19] relates to Wild Oats (Avena fatura). Briefly: Post-emergent herbicidal test. The conditions noted are these: 504 h, post-emergence, 33 micrograms/cm^2, 3 weeks, 0-to-100 scale.
For a further experiment, the system named is Idaho pinto bean plants. Briefly: Axillary Bud Growth Inhibition Of Pinto Bean Plants. The following applies: 288 h; 625-ppm; twelve days after treatment; vs untreated check; read-out: Bud Inhib (percent inhibition of axillary bud growth). How it is done: Compounds of this invention were tested to determine their plant-growth-retarding effects on axillary bud growth of pinto beans.
Idaho pinto bean plants (13-16 days old) having monofoliate leaves fully developed and first trifoliates beginning to unfold were used. All growth 5 mm above the monofoliate leaf node was removed with forceps 1 to 4 hours prior to treatment with the test compounds. Four plants were used for each test compound.
A 625-ppm solution of the test compound in a 2% aqueous acetone solution containing a small amount of a nonionic surfactant was sprayed onto the pinto bean plants until runoff. After drying, the treated plants were transferred to a greenhouse maintained at 20°-23° C. and watered at regular intervals. Twelve days after treatment, the bud growth at the axil of the monofoliate leaf was determined and expressed as percent inhibition of axillary bud growth as compared to untreated check plants.

The subject of a further experiment is Cotton plants. Briefly: Cotton Regrowth. The following applies: Gossypium hirsutum, 13 to 18 days, 100% is total inhibition, read-out: Regrowth (percent inhibition of cotton regrowth). How it is done: Compounds of this invention were tested to determine their plant-growth regulating effects on cotton leaf regrowth.
Cotton plants, 4 to 5 weeks old, containing 4 true leaves above the cotyledonary leaves are employed. Growth beyond the second true leaf was removed. Within 24 hours the plants are sprayed with a 2000 ppm solution of the test compound. After spraying, the plants are transferred to a greenhouse maintained at 85° F. (±5° F.) and incubated there for from 13 to 18 days. The plants during this period are sub-irrigated in 1/4" of water.
After this period, regrowth is determined as a percent inhibition of auxiliary bud regrowth--100% is total inhibition while 0% is no inhibition.

`FC(F)(F)c1cccc(COC(c2cccnc2)c2ccc(Cl)cc2Cl)c1` (stereo not drawn) [Compound 5, 3-pyridyl-2,4-dichlorophenylcarbinol 3-trifluoromethylbenzylether]: the pest or weed control at 250 ppm was 12% in [1]; 0% in [2]; 91% in experiment [3]; 71% in experiment [4]; 100% in experiment [5]. The pest or weed control at 33 µg/cm2 in experiment [6] is 70%; in experiment [7] it was 25%; in [8], 25%; in experiment [9], 45%; in experiment [11] it was 55%; in the experiment on Wild Oats (Avena fatura) [12], 15%. The plant injury at 33 µg/cm2 with Soybean [10] turned out to be 30%. The pest or weed control at 5000 ppm, 33 µg/cm2 in experiment [13] came to 0%; in experiment [14], 63%; in experiment [15] it was 40%; in experiment [16], 55%; in experiment [18] it was 0%; in the experiment with Wild Oats (Avena fatura) [19], 0%. Also, the plant injury at 5000 ppm, 33 µg/cm2 in the experiment with Soybean [17] stood at 30%. Further, in the experiment on Idaho pinto bean plants, the pest or weed control at 625 µg/mL came out at 70%. In addition, in the experiment on Cotton plants, the inhibition at 2000 ppm is 65%.
For the molecule `CC(C)(C)c1ccc(COC(c2cccnc2)c2ccc(Cl)cc2Cl)cc1` (stereo not drawn) [Compound 6, 3-pyridyl-2,4-dichlorophenylcarbinol 4-t-butylbenzylether], the pest or weed control at 250 ppm in experiment [1] is 50%; in experiment [2], 0%; in experiment [3], 78%; in experiment [4] it was 40%; in [5] it was 100%. Moreover, the pest or weed control at 33 µg/cm2 in experiment [6] was 68%; in [7], 15%; in experiment [8] it was 20%; in experiment [9], 35%; in experiment [11], 65%; with Wild Oats (Avena fatura) [12], 25%. Further, the plant injury at 33 µg/cm2 in the experiment on Soybean [10] amounted to 0%. Also, the pest or weed control at 5000 ppm, 33 µg/cm2 in experiment [13] came out at 0%; in experiment [14], 60%; in [15], 25%; in experiment [16] it was 55%; in experiment [18], 0%; in the experiment with Wild Oats (Avena fatura) [19], 0%. For the same molecule, in the experiment on Soybean [17], the plant injury at 5000 ppm, 33 µg/cm2 was 35%. The pest or weed control at 625 µg/mL in the experiment on Idaho pinto bean plants worked out at 60%. Besides, the inhibition at 2000 ppm with Cotton plants turned out to be 90%.
Consider `c1ccc(COC(c2ccccc2)c2cccnc2)cc1` (stereo not drawn) [Compound 7], for which the pest or weed control at 250 ppm in [1] is 0%; in experiment [2], 0%; in [3] it was 43%; in [4], 0%; in [5] it was 100%. Besides, the pest or weed control at 33 µg/cm2 is 99% in [6]; 28% in experiment [7]; 0% in experiment [8]; 32% in experiment [9]; 80% in [11]; 0% with Wild Oats (Avena fatura) [12]. The plant injury at 33 µg/cm2 with Soybean [10] was 0%. Moreover, the pest or weed control at 5000 ppm, 33 µg/cm2 in [13] was determined as 0%; in experiment [14] it was 65%; in [15], 60%; in experiment [16], 45%; in experiment [18] it was 0%; with Wild Oats (Avena fatura) [19], 0%. In addition, the plant injury at 5000 ppm, 33 µg/cm2 with Soybean [17] is 35%. The pest or weed control at 625 µg/mL in the experiment on Idaho pinto bean plants worked out at 20%. Also, in the experiment with Cotton plants, the inhibition at 2000 ppm came to 90%.
For `FC(F)(F)c1cccc(COC(c2ccccc2)c2cccnc2)c1` (stereo not drawn) [Compound 8], the pest or weed control at 250 ppm in experiment [1] is 0%; in [2], 0%; in experiment [3] it was 38%; in experiment [4] it was 25%; in experiment [5] it was 100%. The pest or weed control at 33 µg/cm2 (in experiment [6]; in experiment [7]; in experiment [8]; in [9]; in experiment [11]; with Wild Oats (Avena fatura) [12]) was 0% each time. For the same molecule, in the experiment with Soybean [10], the plant injury at 33 µg/cm2 worked out at 0%. For the same molecule, the pest or weed control at 5000 ppm, 33 µg/cm2 in experiment [13] was 0%; in experiment [14], 40%; in experiment [15], 50%; in experiment [16], 50%; in experiment [18] it was 0%; with Wild Oats (Avena fatura) [19], 0%. Besides, the plant injury at 5000 ppm, 33 µg/cm2 in the experiment with Soybean [17] is 25%. In the experiment on Idaho pinto bean plants, the pest or weed control at 625 µg/mL was 60%. Moreover, the inhibition at 2000 ppm in the experiment on Cotton plants amounted to 65%.
